In patent US20100105745A1, “Suppression of cancer and method for evaluating anticancer agent based on the effect of inhibiting gsk3 beta” (priority 2005, published 2010):

Columns and labels:
[1] = system: Colon cancer cell lines (SW480 and HCT116); test: MTS viable cell assay (cell survival); type: cell-based, human; conditions: 5, 10, 25, and 50 μM, 24-96 hours, FIG. 4A
Description: (§1) Each colon cancer cell line and HEK293 cells were seeded at 3×10^3 cells per well of 96-well culture plates and then cultured overnight in corresponding media (this day was designated day 0). Known GSK3β inhibitors, AR-A014418 (N-(4-methoxybenzyl)-N′-(5-nitro-1,3-thiazol-2-yl)urea, Calbiochem) and SB-216763 (3-(2,4-dichlorophenyl)-4-(1-methyl-1H-indol-3-yl)-1H-pyrrole-2,5-dione, Sigma-Aldrich) were dissolved in dimethyl sulfoxide (DMSO). On day 0, the medium for each cell line were exchanged and then AR-A014418 or SB-216763 was added to the medium to different concentrations (5, 10, 25, and 50 μM). As controls, samples prepared by adding AR-A014418 or SB-216763 to the same concentrations to wells containing no cells and a sample prepared by adding DMSO alone to a well containing cells were analyzed simultaneously.
(§2) At time points after indicated lengths of the times (24, 48, 72, and 96 hours) had elapsed from day 0, the number of viable cells in each well was measured using an MTS* viable cell measurement kit (CellTiter 96™ Aqueous, Promega Corp) in accordance with the protocols of Promega. Practically, 20 μL of an MTS mixture solution that had been prepared immediately before addition was added to each well, followed by three hours of reaction at 37° C. under 5% CO2 wet conditions. Absorbance at a wavelength of 490 nm was measured using a THERMOmax microplate reader (Molecular Devices). The number of cells of each cell line (in 6 wells for treatment by each concentration of AR-A014418 or SB-216763) was measured, and the average absorbance was calculated to determine the number of viable cells.

HEK293 cells [2] = test: MTS viable cell assay (cell survival); type: cell-based, human; conditions: FIG. 4A
Description: as §1, §2

HEK293 cells [3] = test: Apoptosis (Hoechst staining) and proliferation (PCNA labeling index) by double staining; type: cell-based, human; conditions: for changes in apoptosis frequency: FIG. 4C; for changes in cellular proliferation rates (PCNA labeling index): FIG. 4D
Description: (§3) A, B, and E: The number of viable cells in each well as measured by MTS assay at points in time at which the indicated lengths of the time (24, 48, 72, and 96 hours) had elapsed since day 0. C and D: The proportion (D) of proliferating cells' nuclei (PCNA positive) in all the cells observed or the proportion (C) of nuclei undergoing apoptosis in all the cells observed when the cells were subjected to double staining by an immunofluorescence method using an anti-PCNA (proliferating cell nuclear antigen) antibody and Hoechst and then observed under a fluorescence microscope.

colon cancer cells = test: as above; type: cell-based, human; conditions: for cellular proliferation rates (PCNA labeling index): FIG. 4D; for apoptosis frequency: Hoechst staining, FIG. 4C
Description: as §3

[4] = system: glioblastoma cell line (A172, T98G, U251, and U87); test: WST-8 viable cell assay; type: cell-based, human; conditions: 5-50 μM, compared with DMSO, FIGS. 9, 10A
Description: In this example, 4 types of glioblastoma cell line (A172, T98G, U251, and U87 purchased from American Type Culture Collection [ATCC, Manassas, Va.]) and human embryonic kidney cells HEK293 were used as subjects. The expression of GSK3β and the expression of its fractions that had undergone phosphorylation in these cell lines were analyzed in accordance with <Example 1>. Furthermore, the effects of a known GSK3β inhibitor (AR-A014418 or SB-216763) on the survival, proliferation, and apoptosis of tumor cells were analyzed in a manner similar to that in the case of colon cancer cells. […] Number of viable cells and apoptosis frequencies were measured over time. As controls, number of viable cells and apoptosis frequencies were also measured for cells that had been cultured after addition of the same amount of DMSO. In addition, unlike <Example 1>, a WST-8** assay kit (Cell Counting Kit-8, Wako, Osaka) and a microplate reader produced by Bio-Rad Laboratories, Inc. (Hercules, Calif.) were used for measurement of number of viable cells. Furthermore, regarding cell fractions during the proliferation phase, the number of cells incorporating bromodeoxy uridine (BrdU) was measured using a Cell Proliferation ELISA BrdU Kit (Roche, Panzberg, Germany), and then the influence of the GSK3β inhibitor (AR-A014418 or SB-216763) on the proliferation of tumor cells was analyzed.

HEK293 cells [5] = test: Apoptosis frequency; type: cell-based, human; conditions: compared with DMSO, FIG. 10B
Description: (§4) In this example, 4 types of glioblastoma cell line (A172, T98G, U251, and U87 purchased from American Type Culture Collection [ATCC, Manassas, Va.]) and human embryonic kidney cells HEK293 were used as subjects. The expression of GSK3β and the expression of its fractions that had undergone phosphorylation in these cell lines were analyzed in accordance with <Example 1>. Furthermore, the effects of a known GSK3β inhibitor (AR-A014418 or SB-216763) on the survival, proliferation, and apoptosis of tumor cells were analyzed in a manner similar to that in the case of colon cancer cells. Each cell line was cultured overnight and then cultured in medium to which AR-A014418 or SB-216763 dissolved in DMSO had been added to predetermined concentrations (5 μM, 10 μM, 25 μM or 40 μM, and 50 μM). Number of viable cells and apoptosis frequencies were measured over time. As controls, number of viable cells and apoptosis frequencies were also measured for cells that had been cultured after addition of the same amount of DMSO. In addition, unlike <Example 1>, a WST-8** assay kit (Cell Counting Kit-8, Wako, Osaka) and a microplate reader produced by Bio-Rad Laboratories, Inc. (Hercules, Calif.) were used for measurement of number of viable cells. Furthermore, regarding cell fractions during the proliferation phase, the number of cells incorporating bromodeoxy uridine (BrdU) was measured using a Cell Proliferation ELISA BrdU Kit (Roche, Panzberg, Germany), and then the influence of the GSK3β inhibitor (AR-A014418 or SB-216763) on the proliferation of tumor cells was analyzed.

[6] = system: glioblastoma cell line (A172, T98G, U251, and U87); test: Apoptosis frequency; type: cell-based, human; conditions: glioblastoma cells; compared with DMSO; FIG. 10B
Description: as §4

[7] = system: glioblastoma cell line (A172, T98G, U251, and U87); test: Cell Proliferation ELISA BrdU incorporation; type: cell-based, human; conditions: glioblastoma cells; FIG. 10C
Description: Each cell line was cultured overnight and then cultured in medium to which AR-A014418 or SB-216763 dissolved in DMSO had been added to predetermined concentrations (5 μM, 10 μM, 25 μM or 40 μM, and 50 μM). Number of viable cells and apoptosis frequencies were measured over time. As controls, number of viable cells and apoptosis frequencies were also measured for cells that had been cultured after addition of the same amount of DMSO. In addition, unlike <Example 1>, a WST-8** assay kit (Cell Counting Kit-8, Wako, Osaka) and a microplate reader produced by Bio-Rad Laboratories, Inc. (Hercules, Calif.) were used for measurement of number of viable cells. Furthermore, regarding cell fractions during the proliferation phase, the number of cells incorporating bromodeoxy uridine (BrdU) was measured using a Cell Proliferation ELISA BrdU Kit (Roche, Panzberg, Germany), and then the influence of the GSK3β inhibitor (AR-A014418 or SB-216763) on the proliferation of tumor cells was analyzed.

HEK293 cells [8] = test: Cellular senescence by x-gal staining; type: cell-based, human; conditions: 25 μM, 72 hours, compared with DMSO
Description: (§5) In accordance with <Example 1>, each colon cancer cell line (SW480 and HCT116) and a non-cancer cell line (human embryonic kidney cells HEK293) were treated with a 25 μM GSK3β inhibitor (AR-A014418 or SB-216763) or GSK3β-specific RNA interference. As controls, DMSO was administered to these cells or the cells were treated with non-specific RNA interference. Subsequently, the frequency of senescent cells in control cells was compared with that in the corresponding cells in which GSK3β had been inhibited and then the result was analyzed. Furthermore, human telomerase reverse transcriptase (hTERT) mRNA expression that is a molecular indication of cell immortalization and changes in telomerase activity in these cells were compared and analyzed over time. Senescent cells were determined as cells found to be positive for x-gal staining that is an indicator of (3-galactosidase activity. Practically, for this staining, cells cultured on cover glasses were washed with phosphate buffered saline (PBS) and then fixed using a citrate.phosphate fixation solution (0.1 M citric acid, 0.2 M Na2HPO4, pH 6.0) at room temperature for 5 minutes. Subsequently, cells were washed twice with PBS and then caused to react using a x-gal staining solution (1 mg/mL x-gal [Sigma-Aldrich], 5 mM K3Fe[CN]6, 2 mM MgCl2, 150 mM NaCl, 30 mM citrate.phosphate buffer, and 5 mM K4Fe[CN]6) at 37° C. for 20 hours. Stained cells were washed with PBS and then fixed again with 4% paraformaldehyde. X-gal staining positive cells were identified by observation under a light microscope. The frequency of senescent cells was determined by observing 5 high-power fields and measuring and calculating the average frequency of x-gal staining positive cells in the total number of cells (approximately 100 cells) in each field.

[9] = system: colon cancer cell line (SW480 and HCT116); test: Cellular senescence by x-gal staining; type: cell-based, human; conditions: colon cancer cell lines; 25 μM; 72 hours; compared with DMSO; FIGS. 11 and 12
Description: as §5

[10] = system: human telomerase reverse transcriptase (hTERT) in HEK293 cells; test: hTERT mRNA expression by RT-PCR; type: cell-based; conditions: 25 μM inhibitor, FIG. 13
Description: (§6) In accordance with <Example 1>, each colon cancer cell line (SW480 and HCT116) and a non-cancer cell line (human embryonic kidney cells HEK293) were treated with a 25 μM GSK3β inhibitor (AR-A014418 or SB-216763) or GSK3β-specific RNA interference. As controls, DMSO was administered to these cells or the cells were treated with non-specific RNA interference. Subsequently, the frequency of senescent cells in control cells was compared with that in the corresponding cells in which GSK3β had been inhibited and then the result was analyzed. Furthermore, human telomerase reverse transcriptase (hTERT) mRNA expression that is a molecular indication of cell immortalization and changes in telomerase activity in these cells were compared and analyzed over time.
(§7) hTERT mRNA expression was analyzed by extracting total RNA from subject cells and then performing the RT-PCR method. An upstream primer (5′-[…]-3′: SEQ ID NO: 3) and a downstream primer (5′-GGATGAAGCGGAGTCTGGA-3′: SEQ ID NO: 4) were used for RT-PCR. The hTERT gene was amplified by performing 36 or 38 cycles of an RT-PCR program (15 seconds at 94° C., 10 seconds at 55° C., and 9 seconds at 72° C.). Telomerase activity was detected in accordance with recommended protocols using a commercial kit (TRAPEZE® Telomerase Detection Kit, Chemicon International). hTERT expression levels and telomerase activity in GSK3β-inhibited cells and control cells were determined via measurement and quantification of signals on electrophoresis using a densitometer (NIH Image Software), followed by comparison and analysis thereof.

[11] = system: human telomerase reverse transcriptase (hTERT) in colon cancer cell lines (SW480 and HCT116); test: hTERT mRNA expression by RT-PCR; type: cell-based; conditions: 25 μM inhibitor, 72 or 96 hours, FIG. 13
Description: as §6, §7

[12] = system: telomerase activity in HEK293 cells; test: Telomerase activity (TRAPEZE Telomerase Detection Kit); type: cell-based, human; conditions: 25 μM inhibitor, FIG. 14
Description: as §6, §7

[13] = system: telomerase activity in colon cancer cell lines (SW480 and HCT116); test: as above; type: cell-based, human; conditions: 25 μM inhibitor, 72 or 96 hours, FIG. 14
Description: as §6, §7

[14] = target: GSK3β immunoprecipitated from colon cancer cell lines (SW480 and HCT116) (Homo sapiens, UniProt P49841); test: Non-radioisotopic in vitro GSK3β enzyme activity assay; type: biochemical; conditions: 25 μM, compared with DMSO, FIG. 19
Chain of GSK3β immunoprecipitated from colon cancer cell lines (SW480 and HCT116) (P49841 whole entry): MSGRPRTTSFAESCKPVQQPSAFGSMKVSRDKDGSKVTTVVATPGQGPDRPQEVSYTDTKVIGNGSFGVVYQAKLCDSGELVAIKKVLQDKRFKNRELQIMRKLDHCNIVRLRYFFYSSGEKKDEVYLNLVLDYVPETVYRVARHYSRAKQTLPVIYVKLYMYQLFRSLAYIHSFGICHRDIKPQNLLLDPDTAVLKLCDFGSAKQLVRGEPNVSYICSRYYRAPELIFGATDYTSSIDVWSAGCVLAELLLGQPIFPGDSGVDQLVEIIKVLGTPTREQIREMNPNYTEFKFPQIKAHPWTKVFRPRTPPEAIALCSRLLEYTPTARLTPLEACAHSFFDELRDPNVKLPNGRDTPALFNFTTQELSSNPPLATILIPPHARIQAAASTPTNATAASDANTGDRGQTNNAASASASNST
Description: First, a specific anti-GSK3β antibody and beads (resins) are added to a cell extract and then the GSK3β protein is immunoprecipitated (S in FIG. 16). As a negative control (control), non-specific mouse IgG with the same concentration is added to the same type of cell extract (C in FIG. 16). Next, in the presence of a kinase buffer, a recombinant human β-catenin protein (substrate) and nonradioactive ATP (P in FIG. 16) are added, and then a phosphorylation reaction is performed. Subsequently, the reaction solution is analyzed by the Western blot method. A phosphorylated human β-catenin protein is detected using an anti-phosphorylate β-catenin peptides antibody. […] In accordance with the methods in <Example 1>, the protein was extracted from each cell line using a cell lysis buffer (0.2 M Tris-HCl pH 7.5, 1.5 M NaCl, 10 mM EDTA, 10 mM EGTA, 10% Triton X-100, 25 mM sodium pyrophosphate, 10 mM β-glyceophosphate, 10 mM Na3VO4, and Protease inhibitors cocktail [Sigma-Aldrich]). […] Next, GSK3β and the recombinant human β-catenin protein in the reaction solutions were similarly detected by the Western blot method. […] These reaction solutions were similarly analyzed by the Western blot method.

GSK3β activity (phosphorylation of recombinant human β-catenin) [14]	SMILES	survival (rate) of cells [1]	effect to suppress cell survival (HEK293 cells [2])	changes in apoptosis frequency (HEK293 cells [3])	changes in cellular proliferation rates (PCNA labeling index) (HEK293 cells [3])	cellular proliferation rates (PCNA labeling index) (colon cancer cells)	apoptosis frequency (colon cancer cells)	number of viable cells [4]	apoptosis (HEK293 cells [5])	apoptosis [6]	proliferation (BrdU incorporated) [7]	frequency of senescent cells (x-gal staining positive) (HEK293 cells [8])	frequencies of senescent cells (x-gal staining positive) [9]	hTERT expression [10]	hTERT expression [11]	telomerase activity [12]	telomerase activity [13]
completely inhibited	COc1ccc(CNC(=O)Nc2ncc([N+](=O)[O-])s2)cc1 [AR-A014418, N-(4-methoxybenzyl)-N′-(5-nitro-1,3-thiazol-2-yl)urea]	decreased in a manner depending on the dose	not observed	minimal	minimal	lowered	increased	decreased in a manner depending on the concentration of each inhibitor	mildly induced by the addition of the GSK3β inhibitor to the medium, but no significant differences were observed	significantly induced	suppressed	no significant differences	significantly increased	neither changes in hTERT expression	suppressed	nor suppression of telomerase activity	suppressed
completely inhibited	Cn1cc(C2=C(c3ccc(Cl)cc3Cl)C(=O)NC2=O)c2ccccc21 [SB-216763, 3-(2,4-Dichlorophenyl)-4-(1-methyl-1H-indol-3-yl)-1H-pyrrole-2,5-dione]	decreased in a manner depending on the dose	not observed	minimal	minimal	lowered	increased	decreased in a manner depending on the concentration of each inhibitor	mildly induced by the addition of the GSK3β inhibitor to the medium, but no significant differences were observed	significantly induced	suppressed	no significant differences	significantly increased	neither changes in hTERT expression	suppressed	nor suppression of telomerase activity	suppressed
